The values that follow come from patent publication US20220017516A1, “LOX INHIBITORS” (THE INSTITUTE OF CANCER RESEARCH: ROYAL CANCER HOSPITAL, priority 2018, published 2022).

Substitutions are numbered along the chain they refer to. Where two headings read alike, the source gives them in different places.

For experiment [1], the target named is T1, LOX (Sus scrofa, UniProt P45845).
T1 construct: LOX was extracted from pig skin by previously described methods; from tissue; host or cells: pig skin
T1 sequence (P45845 1-249): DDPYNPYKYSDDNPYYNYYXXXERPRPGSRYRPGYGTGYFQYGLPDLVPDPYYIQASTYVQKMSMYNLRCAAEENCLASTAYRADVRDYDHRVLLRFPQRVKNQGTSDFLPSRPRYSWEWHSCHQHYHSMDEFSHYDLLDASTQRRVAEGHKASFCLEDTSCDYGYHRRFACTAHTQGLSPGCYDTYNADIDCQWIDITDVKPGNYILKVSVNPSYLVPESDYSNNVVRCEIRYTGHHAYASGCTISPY
As to the kind of experiment: LOX isoform activity assay (ROS Glo), LOX. As to conditions: 1 h incubation with enzyme. The experiment is classed as biochemical, pig. Summed up: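 Pig-skin LOX or recombinant LOXL3 preincubated 1 h with compound (100-0.003 μM final) in pH 9 CHES buffer containing 1 M urea. Then 19.56 mM cadaverine plus 25 μM H2O2 added, 1.5 h (LOX) or 1 h (LOXL3) at room temperature. ROS-Glo luminescence; IC50 from curve fit.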

The target of another experiment is T2, LOXL3 (Homo sapiens, UniProt P58215).
T2 construct: purchased R&D Systems/Bio-techne
T2 sequence (P58215 26-753): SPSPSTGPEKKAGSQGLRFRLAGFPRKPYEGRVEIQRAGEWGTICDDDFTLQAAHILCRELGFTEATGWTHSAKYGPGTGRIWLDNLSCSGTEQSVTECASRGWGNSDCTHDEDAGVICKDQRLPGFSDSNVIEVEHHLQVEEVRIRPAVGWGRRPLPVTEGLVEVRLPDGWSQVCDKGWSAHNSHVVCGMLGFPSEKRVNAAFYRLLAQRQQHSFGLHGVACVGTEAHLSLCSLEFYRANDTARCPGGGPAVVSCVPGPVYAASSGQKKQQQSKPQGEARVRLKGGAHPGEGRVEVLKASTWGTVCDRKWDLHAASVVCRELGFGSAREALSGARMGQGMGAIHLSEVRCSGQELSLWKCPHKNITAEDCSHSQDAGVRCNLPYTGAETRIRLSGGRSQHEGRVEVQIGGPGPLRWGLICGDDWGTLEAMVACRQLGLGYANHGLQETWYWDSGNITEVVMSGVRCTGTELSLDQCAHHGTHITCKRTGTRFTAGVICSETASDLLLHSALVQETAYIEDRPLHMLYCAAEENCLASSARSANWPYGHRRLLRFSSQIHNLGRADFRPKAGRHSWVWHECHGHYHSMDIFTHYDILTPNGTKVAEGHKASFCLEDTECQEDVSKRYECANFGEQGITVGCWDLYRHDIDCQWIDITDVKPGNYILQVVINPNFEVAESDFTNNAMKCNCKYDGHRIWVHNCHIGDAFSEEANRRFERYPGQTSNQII
In words: LOX isoform activity assay (ROS Glo), LOXL3. As to conditions: 1 h incubation with enzyme. The experiment is classed as biochemical. How it is done: LOX was extracted from pig skin by previously described methods (Shackleton and Hulmes, 1990). LOXL2 and LOXL3 were obtained from R&D Systems/Bio-techne. The Promega ROS Glo assay kit (G8821) was used to assess enzyme activity. Overall, test compound was added to either 384 well assay plates (Greiner) using a Labcyte Echo™ Acoustic Handler or to 96 well plates for a final assay concentration of 100, 30, 10, 3, 1, 0.3, 0.1, 0.03, 0.01 and 0.003 μM final assay concentration. Enzymes were diluted according to specific pre-determined activity in assay buffer (100 mM CHES, pH 9, 0.05% (w/v) pluronic F-127, 0.5% (w/v) BSA, 1 mM MgCl2, 1 M urea, 100 mM NaCl) and added to the plate. For LOXL2, the mixture was incubated for 20 min, 1 h or 20 h; for LOX and LOXL3, incubation time was 1 h. Cadaverine and H2O2 substrate were then added to each well (final assay concentration 19.56 mM and 25 μM respectively) and the plates were incubated for 1.5 h (for LOX) or 1 h (for LOXL2 and LOXL3) at room temperature. Finally, luciferin detection reagent was added and plates were incubated for 20 min at room temperature, protected from light. Luminescence was measured using a BMG LABTECH PHERAstar FS reader and resulting IC50 values were calculated using GraphPad Prism software.

Experiment [2] concerns the target T3, LOX (Mus musculus, UniProt P28301).
T3 construct: Full length LOX cDNA was then PCR cloned into pEGFP-N1 (Clonetech), or biosensor vector proGFP2—N1; expressed in transfected cells; host or cells: MDCK cells grown as cysts on Matrigel
T3 sequence (P28301 163-411): T1 sequence (P45845 1-249) with X20D, X21T, X22Y, Y31N, T80S, S142N, N188A, K202Q, S224T, E231D
In words: LOX activity in cysts assay (roGFP2 LOX biosensor in MDCK cysts). The format is cell-based. As to conditions: for inhibition at 10 µM: read-out: Cyst LOX @ 10 uM (% inhibition). Here is the method: All cell lines used in this study were purchased from American Type Culture Collection (ATCC). Mycoplasma contamination was routinely monitored by PCR. Cells used were not found to be Mycoplasma positive. MDCK cell lines were cultured in Dulbecco's Modified Eagle Medium (DMEM) supplemented with 10% fetal bovine serum (FBS) and 1% Penicillin Streptomycin solution (Pen Strep). For GFP constructs transfection in MDCK cells, lipofectamine 3000 was used according to manufactures protocols. Cells were either selected with G418 (Life Technologies) at 5 mg/ml. All cell culture reagents were purchased from Life Technologies.
To produce MDCK cysts, cells were cultured on Matrigel (Corning) with 2% Matrigel supplemented in DMEM with 10% FBS. Cysts were allowed to form for 10 days before subsequent studies.
Mouse LOX cDNA was purchased from OriGene. Full length LOX cDNA was then PCR cloned into pEGFP-N1 (Clonetech), or biosensor vector proGFP2—N1 (Hanson, 2004) using the following primers, […] (forward primer) and […] (reverse primer). For the insertion into pEGFP-N1 or proGFP2—N1, Nhel and Xhol restriction sites were added to forward and reverse primers accordingly. Mutant LOX constructs were made using QuickChange II site-directed mutagenesis kit (Agilent Technologies) following manufacture's protocol using LOX-GFP as template. To generate, roGFP2 versions of LOX mutant constructs, LOX mutant cDNA was transferred from pEGFP-N1 to proGFP2—N1 using Nhel and Xhol.
All photomicrographs were taken with a Leica TCS SP8 X confocal system. For LOX biosensor imaging, live MDCK cysts were used. The oxidised biosensor was excited using a 405 nm laser, while the reduced biosensor was excited with a 488 nm laser. Emission of the biosensor was recorded at 500 nm-530 nm range using sequential scans. Ratio images were generated following a published protocol {Kardash, 2011 #376}. Note, while the published protocol generates YFP/CFP ratio images, we used it to generate Oxidised/Reduced (roGFP2 ratio) ratio images. The roGFP2 ratio at the basal surface of MDCK cysts was used to indicate LOX inhibition. LOX inhibitors were added 30 min prior to imaging.
For clarity, readout for DMSO treated cysts represents 0% inhibition (no inhibition) and readout for BAPN at 1 mM is used as 100% inhibition (full inhibition).

Where [3] appears, read: LOX, 10 uM, DMSO = 0%, BAPN 1 mM = 100% inhibition, inhibitor added 30 min prior to imaging.

The IC50 is the concentration that gives 50% inhibition. As to `NCCS(=O)(=O)CC(=O)N1CCN(c2ccccc2)CC1` [Example 13, 2-((2-Aminoethyl)-sulfonyl)-1-(4-phenylpiperazin-1-yl)ethan-1-one], the values for the IC50 against LOX [1] and at LOXL3 were 25 µM and 0.28 µM, respectively. The inhibition is the change of the read-out against control, counted positive when it falls. Take `CCOc1ccc(N2C[C@@H]3C[C@H]2CN3C(=O)CS(=O)(=O)CCN)cc1` [Example 8, 2-((2-aminoethyl)-sulfonyl)-1-((1S,4S)-5-(4-ethoxyphenyl)-2,5-diazabicyclo-[2.2.1]heptan-2-yl)-ethan-1-one]: on LOX [2] (LOX, 2.5 uM (stated in cell), DMSO = 0%, BAPN 1 mM = 100% inhibition, read-out: Cyst LOX (% inhibition) @ 2.5 uM), the inhibition at 2.5 µM is 46%. Moreover, the IC50 on LOX [2] (MDCK cysts, read-out: Cyst LOX IC50) was found to be 0.37 µM; against LOXL3, 0.55 µM. Turning to `CCOc1ccc(N2C[C@H]3CN(c4ccc(S(=O)(=O)CCN)cc4)C[C@@H]2C(C)(C)C3)cc1` [Example 33, 2-((4-((1R,5S)-6-(4-ethoxyphenyl)-9,9-dimethyl-3,6-diazabicyclo [3.2.2]nonan-3-yl)phenyl)sulfonyl)ethan-1-amine], the inhibition at 10 µM at LOX [2] (setting [3]) worked out at 100%. At LOX [1], `CCOc1ccc(N2C[C@@H]3C[C@H]2CN3C(=O)C2(S(=O)(=O)CCN)CC2)cc1` [Example 42, (1-((2-Aminoethyl)sulfonyl)cyclopropyl)((1S,4S)-5-(4-ethoxyphenyl)-2,5-diazabicyclo[2.2.1]heptan-2-yl)methanone] gave an IC50 of over 100 µM. Regarding `CCOc1ccc(N2C[C@H]3CN(C(=O)CS(=O)(=O)CCN)C[C@@H]2C(C)(C)C3)cc1` [Example 7, 2-((2-aminoethyl)sulfonyl)-1-((1S,5S)-6-(4-ethoxyphenyl)-9,9-dimethyl-3,6-diazabicyclo[3.2.2]nonan-3-yl)ethan-1-one], the inhibition at 10 µM on LOX [2] (LOX) was 79%.

Take `CCOc1ccc(N2C[C@H]3CN(C(=O)NCCS(=O)(=O)CCN)C[C@@H]2C(C)(C)C3)cc1` [Example 38, (1S,5S)—N-(2-((2-aminoethyl)sulfonyl)ethyl)-6-(4-ethoxyphenyl)-9,9-dimethyl-3,6-diazabicyclo[3.2.2]nonane-3-carboxamide]: on LOX [2] (LOX), the inhibition at 10 µM was 70%. The midpoint of inhibition on LOX [1], the IC50, lay at 8.8 µM. Take `CCOc1ccc(N2CC3CN(CCS(=O)(=O)CCN)CC3C2)cc1` (stereo not drawn) [Example 4, 2-((2-(5-(4-ethoxyphenyl)hexahydropyrolo [3,4-c]pyrrol-2(1H)-yl)ethyl)sulfonyl)ethan-1-amine]: the inhibition at 10 µM at LOX [2] (setting [3]) is 100%. As for `CCOC(=O)CCC(C(=O)N1C[C@@H]2C[C@H]1CN2c1ccc(OCC)cc1)S(=O)(=O)CCN` (stereo partly drawn) [Example 41, ethyl 4-((2-aminoethyl)sulfonyl)-5-((1S,4S)-5-(4-ethoxyphenyl)-2,5-diazabicyclo[2.2.1]heptan-2-yl)-5-oxopentanoate], the IC50 against LOX [1] came to 41 µM.
